ChEMBL document CHEMBL1139417, “Synthesis and biological evaluation of novel 3'-N-tert-butylsulfonyl analogues of docetaxel” (Bioorg Med Chem Lett, 2008)

Tests used:
Format in all cases: functional, cell-based
SMMC-7721 = assay: Cytotoxicity against human SMMC7721 cells
HCT-8 = assay: Cytotoxicity against human HCT8 cells
[1] = Cytotoxicity against human Eca109 cells; details: ECa-109
HeLa = assay: Cytotoxicity against human HeLa cells

SMILES | IC50 (SMMC-7721) | IC50 (HCT-8) | IC50 [1] | IC50 (HeLa)
CC(=O)O[C@H]1C(=O)[C@@]2(C)[C@H]([C@H](OC(=O)c3ccccc3)[C@]3(O)C[C@H](OC(=O)[C@H](O)[C@@H](NC(=O)c4ccccc4)c4ccccc4)C(C)=C1C3(C)C)[C@]1(OC(C)=O)CO[C@@H]1C[C@@H]2O [PACLITAXEL] | 2860 nM | 3290 nM | 2730 nM | 
CC(=O)O[C@@]12CO[C@@H]1C[C@H](O)[C@@]1(C)C(=O)[C@H](O)C3=C(C)[C@@H](OC(=O)[C@H](O)[C@@H](NS(=O)(=O)C(C)(C)C)c4cccc[n+]4[O-])C[C@@](O)([C@@H](OC(=O)c4ccccc4)[C@H]21)C3(C)C | 2540 nM | 2850 nM | 1950 nM | 2540 nM
CC(=O)O[C@@]12CO[C@@H]1C[C@H](O)[C@@]1(C)C(=O)[C@H](O)C3=C(C)[C@@H](OC(=O)[C@H](O)[C@@H](NC(=O)OC(C)(C)C)c4ccccc4)C[C@@](O)([C@@H](OC(=O)c4ccccc4)[C@H]21)C3(C)C [DOCETAXEL] | 2730 nM | 3070 nM | 2600 nM | 3030 nM
CC(=O)O[C@@]12CO[C@@H]1C[C@H](O)[C@@]1(C)C(=O)[C@H](O)C3=C(C)[C@@H](OC(=O)[C@H](O)[C@@H](NS(=O)(=O)C(C)(C)C)c4ccccc4)C[C@@](O)([C@@H](OC(=O)c4ccccc4)[C@H]21)C3(C)C | > 10000 nM | 9120 nM | 7140 nM | 9540 nM
CC(=O)O[C@@]12CO[C@@H]1C[C@H](O)[C@@]1(C)C(=O)[C@H](O)C3=C(C)[C@@H](OC(=O)[C@H](O)[C@@H](NS(=O)(=O)C(C)(C)C)c4ccc[n+]([O-])c4)C[C@@](O)([C@@H](OC(=O)c4ccccc4)[C@H]21)C3(C)C | 2450 nM | 3030 nM | 2520 nM | 2670 nM
